# Data: article PMC10620772, “Design, synthesis, and biological evaluation of new pyrimidine-5-carbonitrile derivatives as novel anti-cancer, dual EGFR^WT/COX-2 inhibitors with docking studies” (RSC Advances, 2023)
# How the values were obtained:
# Format in all cases: cell-based, human
# DU-145 = assay: NCI60 antitumor screening; details: 10 μM one-dose
# NCI-H460 = assay: NCI60 antitumor screening; details: 10 μM one-dose
# MOLT-4 = assay: NCI60 antitumor screening; details: 10 μM one-dose
# LOX IMVI = assay: NCI60 antitumor screening; details: 10 μM one-dose
# HL-60(TB) = assay: NCI60 antitumor screening; details: 10 μM one-dose
# MDA-MB-468 = assay: NCI60 antitumor screening; details: 10 μM one-dose
# SK-OV-3 = assay: NCI60 antitumor screening; details: 10 μM one-dose
# NCI-H226 = assay: NCI60 antitumor screening; details: 10 μM one-dose
# BT-549 = assay: NCI60 antitumor screening; details: 10 μM one-dose
# HS 578T = assay: NCI60 antitumor screening; details: 10 μM one-dose
# SF-268 = assay: NCI60 antitumor screening; details: 10 μM one-dose
# TK-10 = assay: NCI60 antitumor screening; details: 10 μM one-dose
# RXF 393 = assay: NCI60 antitumor screening; details: 10 μM one-dose
# KM12 = assay: NCI60 antitumor screening; details: 10 μM one-dose
# SK-MEL-5 = assay: NCI60 antitumor screening; details: 10 μM one-dose
# K-562 = assay: NCI60 antitumor screening; details: 10 μM one-dose
# HCT-15 = assay: NCI60 antitumor screening; details: 10 μM one-dose
# SF-539 = assay: NCI60 antitumor screening; details: 10 μM one-dose
# CCRF-CEM = assay: NCI60 antitumor screening; details: 10 μM one-dose
# HOP-92 = assay: NCI60 antitumor screening; details: 10 μM one-dose
# MCF7 = assay: NCI60 antitumor screening; details: 10 μM one-dose
# NCI-H322M = assay: NCI60 antitumor screening; details: 10 μM one-dose
# SN12C = assay: NCI60 antitumor screening; details: 10 μM one-dose
# 786–0 = assay: NCI60 antitumor screening; details: 10 μM one-dose
# UO-31 = assay: NCI60 antitumor screening; details: 10 μM one-dose
# SK-MEL-2 = assay: NCI60 antitumor screening; details: 10 μM one-dose
# A498 = assay: NCI60 antitumor screening; details: 10 μM one-dose
# MDA-MB-231/ATCC = assay: NCI60 antitumor screening; details: 10 μM one-dose
# COLO 205 = assay: NCI60 antitumor screening; details: 10 μM one-dose
# SW-620 = assay: NCI60 antitumor screening; details: 10 μM one-dose
# PC-3 = assay: NCI60 antitumor screening; details: 10 μM one-dose
# UACC-257 = assay: NCI60 antitumor screening; details: 10 μM one-dose
# SF-295 = assay: NCI60 antitumor screening; details: 10 μM one-dose
# SNB-75 = assay: NCI60 antitumor screening; details: 10 μM one-dose
# HT29 = assay: NCI60 antitumor screening; details: 10 μM one-dose
# A549/ATCC = assay: NCI60 antitumor screening; details: 10 μM one-dose
# HOP-62 = assay: NCI60 antitumor screening; details: 10 μM one-dose
# SR = assay: NCI60 antitumor screening; details: 10 μM one-dose
# NCI/ADR-RES = assay: NCI60 antitumor screening; details: 10 μM one-dose
# HCC-2998 = assay: NCI60 antitumor screening; details: 10 μM one-dose
# U251 = assay: NCI60 antitumor screening; details: 10 μM one-dose
# RPMI-8226 = assay: NCI60 antitumor screening; details: 10 μM one-dose
# IGROV1 = assay: NCI60 antitumor screening; details: 10 μM one-dose
# MDA-MB-435 = assay: NCI60 antitumor screening; details: 10 μM one-dose
# ACHN = assay: NCI60 antitumor screening; details: 10 μM one-dose
# SK-MEL-28 = assay: NCI60 antitumor screening; details: 10 μM one-dose
# SNB-19 = assay: NCI60 antitumor screening; details: 10 μM one-dose
# OVCAR-4 = assay: NCI60 antitumor screening; details: 10 μM one-dose
# NCI-H23 = assay: NCI60 antitumor screening; details: 10 μM one-dose
# OVCAR-5 = assay: NCI60 antitumor screening; details: 10 μM one-dose
# MALME-3M = assay: NCI60 antitumor screening; details: 10 μM one-dose
# OVCAR-3 = assay: NCI60 antitumor screening; details: 10 μM one-dose
# T-47D = assay: NCI60 antitumor screening; details: 10 μM one-dose
# NCI60 cell lines panel = assay: NCI60 antitumor screening, full panel; details: 10 μM one-dose, mean over NCI60
# Description: The National Cancer Institute (NCI), Bethesda, Maryland, United States, selected all of the novel synthesized compounds (2b–d, 3a–d and 4a–p) for in vitro antitumor screening at a single concentration of 10 μM toward the NCI60 cell lines panel covering leukaemia, non-small cell lungs, colon, central nervous system (CNS), melanoma, ovarian, renal, prostate, and breast cancer cells.[32–35] The data were reported as a mean graph of the percent growth of the treated cell lines and expressed as percentage growth inhibition (GI%) in Table 1 and ESI 1.
# (2) The molar concentration of the compound responsible for total growth inhibition, also known as total growth inhibition (TGI).
# Regarding subpanel selectivity toward certain cancer type, the method of determining a compound's selectivity index is to divide the full panel MG-MID (μM) value by each single subpanel. Values above six indicate high selectivity against the subpanel; moderate selectivity is denoted by values between three and six. Conversely, compounds are termed nonselective if their selectivity is less than three.[30,37]
# M14 = assay: NCI60 antitumor screening; details: 10 μM one-dose
# EKVX = assay: NCI60 antitumor screening; details: 10 μM one-dose
# CAKI-1 = assay: NCI60 antitumor screening; details: 10 μM one-dose
# HCT-116 = assay: NCI60 antitumor screening; details: 10 μM one-dose
# NCI-H522 = assay: NCI60 antitumor screening; details: 10 μM one-dose
# UACC-62 = assay: NCI60 antitumor screening; details: 10 μM one-dose
# OVCAR-8 = assay: NCI60 antitumor screening; details: 10 μM one-dose
smiles,measurement,setting,value
"N#Cc1c(-c2ccc(F)cc2)nc(SCc2ccc([N+](=O)[O-])cc2)[nH]c1=O [2c, 4-(4-Fluorophenyl)-2-((4-nitrobenzyl)thio)-6-oxo-1,6-dihydropyrimidine-5-carbonitrile]",GI%,DU-145,— (GI% < 10)
same,GI%,NCI-H460,— (GI% < 10)
same,GI%,MOLT-4,24.34%
same,GI%,LOX IMVI,14.24%
same,GI%,HL-60(TB),49.95%
same,GI%,MDA-MB-468,— (GI% < 10)
same,GI%,SK-OV-3,— (GI% < 10)
same,GI%,NCI-H226,22.53%
same,GI%,BT-549,— (GI% < 10)
same,GI%,HS 578T,— (GI% < 10)
same,GI%,SF-268,— (GI% < 10)
same,GI%,TK-10,— (GI% < 10)
same,GI%,RXF 393,— (GI% < 10)
same,GI%,KM12,— (GI% < 10)
same,GI%,SK-MEL-5,11.85%
same,GI%,K-562,31.45%
same,GI%,HCT-15,13.42%
same,GI%,SF-539,— (GI% < 10)
same,GI%,CCRF-CEM,15.45%
same,GI%,HOP-92,33.01%
same,GI%,MCF7,— (GI% < 10)
same,GI%,NCI-H322M,— (GI% < 10)
same,GI%,SN12C,14.07%
same,GI%,786–0,— (GI% < 10)
same,GI%,UO-31,11.53%
same,GI%,SK-MEL-2,— (GI% < 10)
same,GI%,A498,— (GI% < 10)
same,GI%,MDA-MB-231/ATCC,— (GI% < 10)
same,GI%,COLO 205,— (GI% < 10)
same,GI%,SW-620,10.78%
same,GI%,PC-3,18.97%
same,GI%,UACC-257,— (GI% < 10)
same,GI%,SF-295,10.37%
same,GI%,SNB-75,— (GI% < 10)
same,GI%,HT29,37.56%
same,GI%,A549/ATCC,— (GI% < 10)
same,GI%,HOP-62,— (GI% < 10)
same,GI%,SR,— (GI% < 10)
same,GI%,NCI/ADR-RES,12.03%
same,GI%,HCC-2998,— (GI% < 10)
same,GI%,U251,13.78%
same,GI%,RPMI-8226,14.16%
same,GI%,IGROV1,— (GI% < 10)
same,GI%,MDA-MB-435,— (GI% < 10)
same,GI%,ACHN,— (GI% < 10)
same,GI%,SK-MEL-28,— (GI% < 10)
same,GI%,SNB-19,— (GI% < 10)
same,GI%,OVCAR-4,— (GI% < 10)
same,GI%,NCI-H23,— (GI% < 10)
same,GI%,OVCAR-5,— (GI% < 10)
same,GI%,MALME-3M,— (GI% < 10)
same,GI%,OVCAR-3,— (GI% < 10)
same,GI%,T-47D,23.03%
same,Mean GI%,NCI60 cell lines panel,— (GI% < 10)
same,GI%,M14,— (GI% < 10)
same,GI%,EKVX,12.04%
same,GI%,CAKI-1,10.99%
same,GI%,HCT-116,22.23%
same,GI%,NCI-H522,30.52%
same,GI%,UACC-62,11.42%
same,GI%,OVCAR-8,— (GI% < 10)
"Cc1ccc(CSc2nc(-c3ccc(F)cc3)c(C#N)c(=O)[nH]2)cc1 [2d, 4-(4-Fluorophenyl)-2-((4-methylbenzyl)thio)-6-oxo-1,6-dihydropyrimidine-5-carbonitrile]",GI%,DU-145,— (GI% < 10)
same,GI%,NCI-H460,— (GI% < 10)
same,GI%,MOLT-4,11.64%
same,GI%,LOX IMVI,— (GI% < 10)
same,GI%,HL-60(TB),43.38%
same,GI%,MDA-MB-468,— (GI% < 10)
same,GI%,SK-OV-3,— (GI% < 10)
same,GI%,NCI-H226,— (GI% < 10)
same,GI%,BT-549,15.75%
same,GI%,HS 578T,— (GI% < 10)
same,GI%,SF-268,— (GI% < 10)
same,GI%,TK-10,— (GI% < 10)
same,GI%,RXF 393,— (GI% < 10)
same,GI%,KM12,— (GI% < 10)
same,GI%,SK-MEL-5,— (GI% < 10)
same,GI%,K-562,— (GI% < 10)
same,GI%,HCT-15,15.77%
same,GI%,SF-539,— (GI% < 10)
same,GI%,CCRF-CEM,— (GI% < 10)
same,GI%,HOP-92,— (GI% < 10)
same,GI%,MCF7,10.82%
same,GI%,NCI-H322M,— (GI% < 10)
same,GI%,SN12C,— (GI% < 10)
same,GI%,786–0,— (GI% < 10)
same,GI%,UO-31,— (GI% < 10)
same,GI%,SK-MEL-2,— (GI% < 10)
same,GI%,A498,— (GI% < 10)
same,GI%,MDA-MB-231/ATCC,— (GI% < 10)
same,GI%,COLO 205,— (GI% < 10)
same,GI%,SW-620,— (GI% < 10)
same,GI%,PC-3,— (GI% < 10)
same,GI%,UACC-257,— (GI% < 10)
same,GI%,SF-295,— (GI% < 10)
same,GI%,SNB-75,— (GI% < 10)
same,GI%,HT29,10.72%
same,GI%,A549/ATCC,10.16%
same,GI%,HOP-62,— (GI% < 10)
same,GI%,SR,— (GI% < 10)
same,GI%,NCI/ADR-RES,— (GI% < 10)
same,GI%,HCC-2998,— (GI% < 10)
same,GI%,U251,— (GI% < 10)
same,GI%,RPMI-8226,— (GI% < 10)
same,GI%,IGROV1,— (GI% < 10)
same,GI%,MDA-MB-435,— (GI% < 10)
same,GI%,ACHN,— (GI% < 10)
same,GI%,SK-MEL-28,— (GI% < 10)
same,GI%,SNB-19,— (GI% < 10)
same,GI%,OVCAR-4,— (GI% < 10)
same,GI%,NCI-H23,— (GI% < 10)
same,GI%,OVCAR-5,— (GI% < 10)
same,GI%,MALME-3M,— (GI% < 10)
same,GI%,OVCAR-3,— (GI% < 10)
same,GI%,T-47D,13.50%
same,Mean GI%,NCI60 cell lines panel,— (GI% < 10)
same,GI%,M14,— (GI% < 10)
same,GI%,EKVX,— (GI% < 10)
same,GI%,CAKI-1,— (GI% < 10)
same,GI%,HCT-116,— (GI% < 10)
same,GI%,NCI-H522,12.91%
same,GI%,UACC-62,— (GI% < 10)
same,GI%,OVCAR-8,— (GI% < 10)
